Results taken from patent US20250127801A1, “BRIDGED TRICYCLIC CARBAMOYLPYRIDONE COMPOUNDS AND USES THEREOF” (priority 2023, published 2025).
pEC50: −log10 of the molar value. Values after ≈ are worked out from the molar mass of the structure shown.

Assays:
in vivo = conditions: male, beagle, dog, po, 175 mg
HIV-1 (IIIB) = experiment: microbe, parasite or virus in culture; format: cell-based; conditions: Human immunodeficiency virus 1, MT4, 120 h; HIV-1 (IIIB) replication in MT-4 cells, 5 days incubation, Cell Titer Glo; read-out: MT4 EC50
in vitro = conditions: human, uninfected MT-4 cells
physchem = conditions: FaSSIF, 23 °C, thermodynamic from solid

| SMILES | bioavailability (in vivo) | pEC50 (HIV-1 (IIIB)) | CC50 at 5 days (in vitro) | solubility thermodynamic at 24 h (physchem) |
| --- | --- | --- | --- | --- |
| CC1=NO[C@@]2(CC[C@H](C)N3C[C@H]2n2cc(C(=O)NCc4ccc(F)cc4F)c(=O)c(O)c2C3=O)C1 [Intermediate B, (3′S,5S,7′R)—N-(2,4-difluorobenzyl)-12′-hydroxy-3,3′-dimethyl-1′,11′-dioxo-1′,4′,5′,11′-tetrahydro-3′H,4H,7′H-spiro[isoxazole-5,6′-[2,7]methanopyrido[1,2-a][1,4]diazonine]-10′-carboxamide] | 15.6% |  |  |  |
| COC1=NO[C@@]2(CC[C@H](C)N3C[C@H]2n2cc(C(=O)NCc4ccc(F)cc4F)c(=O)c(O)c2C3=O)C1 [Intermediate C, (3′S,5S,7′R)—N-(2,4-difluorobenzyl)-12′-hydroxy-3-methoxy-3′-methyl-1′,11′-dioxo-1′,4′,5′,11′-tetrahydro-3′H,4H,7′H-spiro[isoxazole-5,6′-[2,7]methanopyrido[1,2-a][1,4]diazonine]-10′-carboxamide] | 14.5% |  |  |  |
| CC1=NO[C@@]2(CC[C@H](C)N3C[C@H]2n2cc(C(=O)NCc4ccc(F)cc4F)c(=O)c(OCOC(=O)O[C@H]4CCCC[C@H]4COP(=O)(O)O)c2C3=O)C1 [Compound 53, (((3′S,5S,7′R)-10′-((2,4-difluorobenzyl)carbamoyl)-3,3′-dimethyl-1′,11′-dioxo-1′,4′,5′,11′-tetrahydro-3′H,4H,7′H-spiro[isoxazole-5,6′-[2,7]methanopyrido[1,2-a][1,4]diazonin]-12′-yl)oxy)methyl ((1S,2S)-2-((phosphonooxy)methyl)cyclohexyl) carbonate] |  | 8.30 | 35.7 µM | 4680 µg/mL (≈ 6.22 mM) |
| CCCCCCCCCCCCCC(=O)Nc1ccc(CC(=O)Oc2c3n(cc(C(=O)NCc4ccc(F)cc4F)c2=O)[C@@H]2CN(C3=O)[C@@H](C)CC[C@]23CC(OC)=NO3)cc1 [Compound 93, (3′S,5S,7′R)-10′-((2,4-difluorobenzyl)carbamoyl)-3-methoxy-3′-methyl-1′,11′-dioxo-1′,4′,5′,11′-tetrahydro-3′H,4H,7′H-spiro[isoxazole-5,6′-[2,7]methanopyrido[1,2-a][1,4]diazonin]-12′-yl 2-(4-tetradecanamidophenyl)acetate] |  | 8.86 | ≥ 50 µM | 6 µg/mL (≈ 0.00709 mM) |
| CC1=NO[C@@]2(CC[C@H](C)N3C[C@H]2n2cc(C(=O)NCc4ccc(F)cc4F)c(=O)c(OCOC(=O)[C@H]4[C@@H](COP(=O)(O)O)[C@@H]4C(=O)O)c2C3=O)C1 [Compound 79, (1S,2S,3S)-2-(((((3′S,5S,7′R)-10′-((2,4-difluorobenzyl)carbamoyl)-3,3′-dimethyl-1′,11′-dioxo-1′,4′,5′,11′-tetrahydro-3′H,4H,7′H-spiro[isoxazole-5,6′-[2,7]methanopyrido[1,2-a][1,4]diazonin]-12′-yl)oxy)methoxy)carbonyl)-3-((phosphonooxy)methyl)cyclopropane-1-carboxylic acid] |  | 8.65 | 12.5 µM | 4520 µg/mL (≈ 6.11 mM) |
| CNCC(=O)OCc1cccnc1N(C)C(=O)OCOc1c2n(cc(C(=O)NCc3ccc(F)cc3F)c1=O)[C@@H]1CN(C2=O)[C@@H](C)CC[C@]12CC(C)=NO2 [Compound 9, (2-((((((3′S,5S,7′R)-10′-((2,4-difluorobenzyl)carbamoyl)-3,3′-dimethyl-1′11′-dioxo-1′,4′,5′,11′-tetrahydro-3′H,4H,7′H-spiro[isoxazole-5,6′-[2,7]methanopyrido[1,2-a][1,4]diazonin]-12′-yl)oxy)methoxy)carbonyl)(methyl)amino)pyridin-3-yl)methyl methylglycinate] |  | 8.85 | 10.5 µM | 3240 µg/mL (≈ 4.3 mM) |
